# Like-named read-outs stand apart in the source and are kept apart here. Numbered stars: 1 amine (or outer) side, 2 acyl side, 3 side chain; on linkers, the order of the positions; unused ones are H or OH. Bridge positions count the residues as written; N and C are the ends. Square brackets hold non-standard residues; d marks the D form. Peptide text beside a SMILES is read from it. I, II: the chains in the order shown. X1 = O=C(COc1cccc2c1C1c3c(OCC(=O)NCCCCCCCCN[*:2])cccc3C2c2cccc(OCC(=O)NCCCCCCCCN[*:3])c21)NCCCCCCCCN[*:1]; Cha = N[C@@H](CC1CCCCC1)C(=O)O
# Tests used:
# [1] = tested on: A549 cells; assay: cells
# Method: (§1) HeLa S3 cells (human cervical carcinoma) were cultured in Minimum essential medium (MEM) containing 10% FBS, penicillin, and streptomycin. A549 cells (human lung carcinoma) and IMR90 cells (human fetal lung fibroblast) were cultured in Dulbecco’s modified Eagle’s medium (DMEM) with 10% FBS, penicillin, and streptomycin. All cells were cultured at 37 °C under a humidified atmosphere containing 5% CO2.
# (§2) Jurkat, HeLa-S3, A549 cells (2.0 × 10^5 cells/mL) and IMR90 cells (1.0 × 10^5 cells/mL) were incubated in the presence of 3–7 for 1 h, and etoposide, cisplatin and celastrol for 24 h (50 μL) in cell culture medium under CO2 at 37 °C in 96-well plates (BD Falcon). MTT reagent (5 mg/mL) in PBS (10 μL) was then added to the cells. After incubation at 37 °C for 4 h, a formazan lysis solution (10% sodium dodecyl sulfate (SDS) in 0.01 N HCl) (100 μL) was added and the resultant solution was incubated overnight under the same conditions, which was followed by measurement of the absorbance at 570 nm using a microplate reader (ARVO, PerkinElmer).
# [2] = tested on: IMR90 cells; assay: cells; settings: read-out: EC50 against IMR90 cells
# Method: as §1, §2
# [3] = tested on: Jurkat cells; assay: cells; settings: read-out: EC50 against Jurkat cells
# Method: as §1, §2
# [4] = tested on: HeLa-S3 cells; assay: cells; settings: read-out: EC50 against HeLa-S3 cells
# Method: as §1, §2
# [5] = tested on: labile Fe^2+ in mitochondria of Jurkat cells; assay: Mito-FerroGreen fluorescence microscopy in Jurkat cells; format: cell-based; settings: 4 2.5 μM 1 h; celastrol 5 μM, etoposide 5 μM, cisplatin 100 μM 24 h
# Method: (§3) Jurkat cells (2.0 × 10^5 cells) were treated with 4 (2.5 μM), etoposide (5 μM), cisplatin (100 μM) and celastrol (5 μM) and stained with Mito-FerroGreen (a probe for labile Fe^2+ in mitochondria) (5 μM) and zinquin (a probe for intracellular Zn^2+) (25 μM). The cell images were observed via fluorescence microscopy.
# [6] = tested on: Ca^2+ concentrations in mitochondria and cytosol in HeLa-S3 cells; assay: Rhod-2/AM and Rhod-4/AM emission (mitochondrial and cytosolic Ca2+) in HeLa-S3 cells; format: cell-based, human; settings: 4 5 μM 1 h; for Emission of Rhod-2/AM (mitochondrial Ca2+) in HeLa-S3 cells: celastrol or cisplatin 100 μM 2–6 h
# Method: (§4) Jurkat, HeLa-S3, and A549 cells (2.0 × 10^5 cells) were preincubated with Rhod-2/AM (final concentration = 5 μM) or Rhod-4/AM (final concentration = 5 μM) in medium under 5% CO2 at 37 °C for 30 min and then treated with 4 (final concentration = 2.5, 5, or 10 μM) for 0, 15, 30, 45, and 60 min. HeLa-S3 and A549 cells were detached by accutase, immediately after which the cells were suspended in 300 μL of cell culture medium and then analyzed on a flow cytometer (FACS Calibur cytometer, Becton), and the data were analyzed using the FlowJo software (FlowJo, LCC).
# (§5) Jurkat, HeLa-S3, A549, and IMR90 cells (2.0 × 10^5 cells) were stained with Rhod-2/AM or Rhod-4/AM (final concentration = 5 μM) for 30 min at 37 °C under 5% CO2. The cells were washed with PBS and were treated with 4 (final concentration = 2.5, 5, or 10 μM) in cell culture medium for 30 and 60 min at 37 °C under 5% CO2. To test the effect of celastrol and cisplatin in HeLa-S3 and A549 cells, the cells were incubated with celastrol (final concentration = 100 μM) and cisplatin (final concentration = 100 μM) for 2–6 h. After washing with PBS, the cells were observed via fluorescence microscopy (BZ-X800, Keyence) using a Greiner CELLview Petri dish (35 × 10 mm^2). Emission images were observed using a TRITC filter (excitation 540 nm, emission 605 nm).
# (§6) Jurkat, HeLa-S3, A549, and IMR90 cells (8.0 × 10^4 cells) were incubated with CCCP or 2-APB for 1 h and then stained with Rhod-2/AM or Rhod-4/AM (final concentration = 5 μM) for 30 min at 37 °C under 5% CO2. The cells were washed with PBS and were treated with 4 (final concentration = 2.5, 5, or 10 μM) in PBS for 0–60 min at 37 °C in a microplate reader (ARVO, PerkinElmer). Excitation at 540 nm and emission at 590 nm were used for the measurement of Rhod-2/AM and Rhod-4/AM on the microplate reader.
# [7] = tested on: intracellular Zn^2+ in Jurkat cells; assay: Zinquin fluorescence microscopy in Jurkat cells; format: cell-based; settings: 4 2.5 μM 1 h; celastrol 5 μM, etoposide 5 μM, cisplatin 100 μM 24 h
# Method: as §3
# [8] = tested on: HeLa-S3 cells; assay: Costaining of ER and mitochondria (ERTracker Red, MitoTracker Green), confocal microscopy, HeLa-S3 cells; format: cell-based, human; settings: 4 5 μM, 5 and 10 min; celastrol 100 μM
# Method: (§7) Jurkat, HeLa-S3, A549, and IMR90 cells (2.0 × 10^5 cells) were incubated with 4 (final concentration = 2.5 μM (for Jurkat), 5 μM (for HeLa-S3), 10 μM (for A549) and 5 μM and 50 μM (for IMR90)) in cell culture medium at 37 °C under 5% CO2. After incubation, MitoTracker Green (final concentration = 100 nM (for Jurkat) or 500 nM (for HeLa-S3, A549 and IMR90)), or ERTracker Red (final concentration = 500 nM (for Jurkat) or 1 μM (for HeLa-S3, A549 and IMR90)) were applied for 1 h under the same conditions. After washing with PBS, the cells were observed via confocal fluorescence microscopy (FluoView, FV-1000, Olympus). Excitation at 473 nm and emissions from 485 to 585 nm were used for detecting the MitoTracker Green. Excitation at 559 nm and emissions from 570 to 670 nm were used for detecting the ERTracker Red. Exposure time was 20 μs/pixel.
# [9] = tested on: A549 cells; assay: Costaining of ER and mitochondria (ERTracker Red, MitoTracker Green), confocal microscopy, A549 cells; format: cell-based, human; settings: 4 10 μM, 15 min; celastrol 100 μM
# Method: as §7
# [10] = tested on: Ca^2+ concentrations in mitochondria and cytosol in A549 cells; assay: Rhod-2/AM and Rhod-4/AM emission (mitochondrial and cytosolic Ca2+) in A549 cells; format: cell-based, human; settings: 4 10 μM 1 h; celastrol 100 μM 2–6 h
# Method: as §4, §5, §6
# [11] = molecular target: trypsin (Sus scrofa, UniProt P00761); assay: Stability after treatment with trypsin (RP-HPLC); settings: 10 μM, trypsin 5 U/mL, 10 mM HEPES pH 7.5, 1 h, 37 °C
# Method: 4 and 5 (10 μM) were incubated with trypsin (5 U/mL) in 10 mM 2-[4-(2-hydroxyethyl)-1-piperazinyl]ethanesulfonic acid ((HEPES), pH = 7.5) for 1 h at 37 °C and then analyzed via RP-HPLC (CH3CN (0.1% TFA)/H2O (0.1% TFA) = 20/80 to 70/30 (30 min), 1.0 mL/min).
# [12] = tested on: Jurkat cells; assay: MTT assay of Jurkat cells treated with 4 or celastrol in the presence of inhibitors; format: cell-based; settings: 4 2.5 μM 1 h; Z-VAD-fmk 15 μM, necrostatin-1 30 μM, 3-MA 10 μM, CCCP 40 μM, DIDS 75 or 100 μM, 2-APB 50 or 100 μM, RuRed 75 μM
# Method: (a) Jurkat cells: Jurkat cells (2.0 × 10^5 cells/mL) in RPMI 1640 medium with 10% FBS were pretreated with the inhibitors (Z-VAD-fmk (final concentration = 15 μM), necrostatin-1 (final concentration = 30 μM), 3-MA (final concentration = 10 μM), and DIDS (75 or 100 μM)) for 3 h or pretreated with other inhibitors (CCCP (40 μM), FCCP (40 μM), 2-APB (50 or 100 μM) and RuRed (75 μM)) for 1 h under 5% CO2 at 37 °C. After incubation, 4 (final concentration = 2.5 μM) was added to the cell suspension, which was then incubated for 1 h at 37 °C. To test the effect of celastrol, the cells were pretreated with the aforementioned inhibitors and then incubated with celastrol (5 μM) for 24 h. MTT reagent (5 mg/mL) in PBS (10 μL) was added to the cells. After incubation at 37 °C for 4 h, a formazan lysis solution (10% sodium dodecyl sulfate (SDS) in 0.01 N HCl) (100 μL) was added, and the resultant solution was incubated overnight under the same conditions, followed by measurement of the absorbance at 570 nm using a microplate reader (ARVO, PerkinElmer).
# [13] = tested on: HeLa-S3 cells; assay: MTT assay of HeLa-S3 cells treated with 4 or celastrol in the presence of inhibitors; format: cell-based, human; settings: 4 5 μM 1 h; Z-VAD-fmk 100 μM, necrostatin-1 100 μM, 3-MA 5 mM, CCCP 160 μM, DIDS 75 or 100 μM
# Method: (b) HeLa-S3 cells: HeLa-S3 cells (2.0 × 10^5 cells/mL) in MEM medium with 10% FBS were pretreated with the inhibitors (3-MA (5 mM), and DIDS (75 or 100 μM)) for 3 h or pretreated with other inhibitors (Z-VAD-fmk (100 μM), necrostatin-1 (100 μM), CCCP (160 μM), and FCCP (80 μM)) for 1 h under 5% CO2 at 37 °C. After the incubation, 4 (final concentration = 5 μM) was added to the cell suspension, which was then incubated for 1 h at 37 °C. Subsequent procedures were the same as those used for the Jurkat cells.
# [14] = tested on: A549 cells; assay: MTT assay of A549 cells treated with 4 or celastrol in the presence of inhibitors; format: cell-based, human; settings: 4 10 μM 1 h; Z-VAD-fmk 100 μM, necrostatin-1 100 μM, 3-MA 1 mM, CCCP 250 μM, DIDS 250 μM
# Method: (c) A549 cells: A549 cells (2.0 × 10^5 cells/mL) in DMEM medium with 10% FBS were pretreated with the inhibitors (3-MA (1 mM), and DIDS (250 μM)) for 3 h or pretreated with other inhibitors (Z-VAD-fmk (100 μM), necrostatin-1 (100 μM), CCCP (250 μM), and FCCP (10 μM)) for 1 h under 5% CO2 at 37 °C. After incubation, 4 (final concentration = 10 μM) was added to the cell suspension, which was then incubated for 1 h at 37 °C. Subsequent procedures were the same as those used for the Jurkat cells.
# [15] = tested on: Jurkat cells; assay: Costaining of ER and mitochondria (ERTracker Red, MitoTracker Green), confocal microscopy, Jurkat cells; format: cell-based; settings: 4 2.5 μM, CCCP 40 μM
# Method: as §7
# [16] = MTT, incubation 24 h (etoposide, cisplatin, celastrol)
# trypsin, sequence (P00761 9-231): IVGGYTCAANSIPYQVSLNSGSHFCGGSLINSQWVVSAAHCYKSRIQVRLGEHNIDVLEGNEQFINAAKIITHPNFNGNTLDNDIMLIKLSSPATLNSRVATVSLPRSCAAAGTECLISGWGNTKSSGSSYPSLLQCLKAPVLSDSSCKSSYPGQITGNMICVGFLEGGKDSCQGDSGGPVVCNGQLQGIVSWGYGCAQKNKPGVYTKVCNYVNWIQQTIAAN
compound,measurement,setting,value
N.N.[Cl][Pt][Cl] [cisplatin],EC50,"[1]; read-out: EC50 against A549 cells, MTT, incubation 24 h (etoposide, cisplatin, celastrol)",> 100 µM
same,EC50,[2]; [16],> 12.5 µM
same,EC50,[3]; [16],5.8 ± 1.4 µM
same,EC50,[4]; [16],15 ± 3.4 µM
same,Emission from Mito-FerroGreen (free Fe2+ in mitochondria) in Jurkat cells,[5],increases in both free-Fe^2+ and free-Zn^2+
same,Emission of Rhod-2/AM (mitochondrial Ca2+) in HeLa-S3 cells,[6],weak enhancement
same,Emission from zinquin (intracellular free Zn2+) in Jurkat cells,[7],increases in both free-Fe^2+ and free-Zn^2+
CC1=C(O)C(=O)C=C2C1=CC=C1[C@@]2(C)CC[C@@]2(C)[C@@H]3C[C@](C)(C(=O)O)CC[C@]3(C)CC[C@]12C [celastrol],EC50,"[1]; Homo sapiens, A549, read-out: EC50 against A549 cells",31 ± 2.2 µM
same,EC50,"[2]; Homo sapiens, IMR-90, 24 h",> 25 µM
same,EC50,"[3]; Homo sapiens, Jurkat, 24 h",0.9 ± 0.1 µM
same,EC50,"[4]; Homo sapiens, HeLa S3, 24 h",22 ± 6 µM
same,Emission from Mito-FerroGreen (free Fe2+ in mitochondria) in Jurkat cells,[5],negligibly enhanced
same,Overlap of emission from MitoTracker Green and ERTracker Red in HeLa-S3 cells,[8],weaker overlap
same,Overlap of emission from MitoTracker Green and ERTracker Red in A549 cells,[9],weaker overlap
same,Emission of Rhod-4/AM (cytosolic Ca2+) in HeLa-S3 cells,[6]; celastrol 100 μM 2–6 h,mitochondrial and cytoplasmic Ca^2+ overload
same,Emission of Rhod-2/AM (mitochondrial Ca2+) in HeLa-S3 cells,[6],mitochondrial and cytoplasmic Ca^2+ overload
same,Emission from zinquin (intracellular free Zn2+) in Jurkat cells,[7],negligibly enhanced
same,Emission of Rhod-2/AM (mitochondrial Ca2+) in A549 cells,[10],mitochondrial Ca^2+ overload
same,Emission of Rhod-4/AM (cytosolic Ca2+) in A549 cells,[10],negligibly changed
NCCCC[C@@H]1NC(=O)CNC(=O)[C@H](CCC(=O)NCCCCCCCCNC(=O)COc2cccc3c2C2c4c(OCC(=O)NCCCCCCCCNC(=O)CC[C@@H]5NC(=O)[C@H](CC6CCCCC6)NC(=O)[C@H](CCCCN)NC(=O)[C@H](CCCCN)NC(=O)[C@H](CCCCN)NC(=O)CNC5=O)cccc4C3c3cccc(OCC(=O)NCCCCCCCCNC(=O)CC[C@@H]4NC(=O)[C@H](CC5CCCCC5)NC(=O)[C@H](CCCCN)NC(=O)[C@H](CCCCN)NC(=O)[C@H](CCCCN)NC(=O)CNC4=O)c32)NC(=O)[C@H](CC2CCCCC2)NC(=O)[C@H](CCCCN)NC(=O)[C@H](CCCCN)NC1=O [compound 5] (I: cyclo(KKK[Cha]EG) / II: cyclo(KKK[Cha]EG) / III: cyclo(KKK[Cha]EG); linker I:5-II:5-III:5 via X1),EC50,"[1]; read-out: EC50 against A549 cells, MTT, incubation 1 h at 37 °C",9.5 ± 0.1 µM
same,EC50,"[2]; MTT, incubation 1 h at 37 °C",> 25 µM
same,EC50,"[3]; MTT, incubation 1 h at 37 °C",1.6 ± 0.1 µM
same,EC50,"[4]; MTT, incubation 1 h at 37 °C",8.5 ± 0.4 µM
same,Stability against trypsin digestion,[11],negligible decomposition
"N#CC(C#N)=NNc1cccc(Cl)c1 [CCCP, carbonyl cyanide 3-chlorophenylhydrazone]",Inhibition of 4-induced cell death in Jurkat cells,[12],considerably inhibited
same,Inhibition of 4-induced cell death in HeLa-S3 cells,[13],considerably inhibited
same,Inhibition of 4-induced cell death in A549 cells,[14],considerably inhibited
same,Inhibition of the 4-induced overlap of emission from MitoTracker Green and ERTracker Red in Jurkat cells,[15],considerably inhibited

# Source: PMC11375786, “Induction of Paraptotic Cell Death in Cancer Cells by Triptycene–Peptide Hybrids and the Revised Mechanism of Paraptosis II” (Biochemistry, 2024)
